Experimental data published in patent US20250250218A1, “Anti-Amyloidogenic Curcumin Analogues” (MCPHS University, priority 2024, published 2025).

How the values were obtained:
Aβ1-42 peptide = Aβ1-42 peptide (Homo sapiens, UniProt P05067); experiment: Thioflavin T (ThT) fluorescence assay of Aβ1-42 aggregation (SensoLyte kit); assay type: biochemical; conditions: Aβ1-42 35 μM, minimum of five concentrations, read-out: IC50, inhibition of Aβ aggregation (anti-amyloidogenic activity)
Protocol: All newly synthesized compounds were screened for their anti-amyloidogenic activity on Aβ1-42 peptides, using Phenol Red as the internal standard—all at 100 μM. […] To obtain the IC50 values (shown in FIGS. 4A-4D), all compounds were tested at a minimum of five different concentrations.
Samples of ThT (final concentration of 200 μM) and Aβ1-42 peptide (final concentration of 35 μM) were incubated at 37° C. in a black clear bottom 96-well plate. The ThT fluorescence intensity of each sample was immediately measured every 5 min for 120 min, with 440/485 nm excitation/emission filters and with 15 sec shaking between reads to facilitate aggregation. An inhibitor control containing Aβ1-42 and a supplied aggregation inhibitor (Phenol Red), at a final concentration of 100 μM. The positive control contained Aβ1-42 without an inhibitor. […] All the wells were brought to 100 μL as a final volume.

[1] = tested on: Drosophila melanogaster UAS-Aβ 1-42/nSyb-Gal4; experiment: Forced climbing assay in transgenic flies overexpressing Aβ; assay type: in vivo
Text: To produce the transgenic Drosophila line of interest, UAS-Aβ42 1-42 female virgins were crossed with nSyb-Gal4 males. UAS-Aβ42 1-42 has a TM3, Sb balancer on the third chromosome, resulting in the mutant Sb gene, indicative of stubble bristles as a dominant marker. When crossed with the driver line, such as nSyb-Gal4, the transgenic line will either be UAS-Aβ42 1-42/nSyb-Gal4 or nSyb-Gal4/TM3, Sb. […] All offspring with the inherited balanced nSyb-Gal4TM3, Sb were negatively selected. Once enough F1 progeny of the transgenic line of interest were available, testing of the compounds was carried out. The extended chalcones of interest were dissolved in DMSO to a concentration of 5 mg/mL. […] These three concentrations were then introduced to each respective group. […] A forced climbing assay was conducted on the transgenic flies exposed to the extended chalcone compounds. […] The climbing assay was conducted five times a day, beginning on the seventh day after the flies were exposed to the compounds. Vials were marked with top, middle, and bottom sections, separated by one inch.

Aβ42 = experiment: Human Aβ42 ELISA on heads of treated transgenic flies; assay type: in vivo; conditions: any concentration fed (1, 10, 100 mcg/mL)
Protocol: To perform the ELISA, the samples were first thawed on ice. A protease inhibitor cocktail with AEBSF (a serine protease inhibitor) was added to each sample, with a final concentration of 1 mM, and were then centrifuged to remove the large particulate matter. After centrifugation, samples were diluted with Standard Diluent Buffer at a 1:50 ratio to ensure sample concentrations would be within the range of the standard curve. […] After 30 min, the solution was thoroughly aspirated, and the wells were washed four times with Ix Wash Buffer. Stabilizing Chromogen (100 mcL) was added to each well and the plate was incubated in the dark. After 30 min, 100 mcL of the Stop Solution was added to every well and the plate was read immediately at an absorbance of 450 nm.
Absorbance measurements for each sample and control were averaged, and from the calibration curve the corresponding level of AB was determined. Data were analyzed using a one-way ANOVA. […] Thus, the physiological benefit observed when the flies were fed either Compound 25, 33, or 34 at varying concentrations, was most likely a result of a decrease in brain plaque burden.

SH-SY5Y cells = experiment: MTT cell viability assay (neurotoxicity and neuroprotection); conditions: 48 h; for decrease in cell viability, compound co-administered with Aβ42: compound at IC50 concentration + Aβ42 20 μM, Aβ42 alone […]%; for cytotoxicity / neurotoxicity of compound alone: compound at its IC50 concentration
Protocol: To test neurotoxicity and neuroprotective effects of the compounds, a 3-(4,5-dimethylthiazol-2-yl)-2,5-diphenyltetrazolium bromide (MTT) assay was performed using compounds 25, 33, and 34 as described [8].
SH-SY5Y cells (CRL-2266, ATCC, Manassas, VA) were maintained in SH-SY5Y cells (CRL-2266, ATCC, Manassas, VA, USA) were maintained in Dulbecco's Modified Eagle's Medium and Ham's F-12 Medium (DMEM: F12) supplemented with 50 mL fetal bovine serum (10%) and incubated at 37° C., 5% CO2, and 90% humidity. For the MTT assay, cells were sub-cultured using trypsin-ethylenediaminetetraacetic acid (EDTA) (0.25%) solution into clear 96-well plates and allowed to adhere for 24 h. […] All groups were incubated for 48 h.
The MTT assay (Ab211091, Abcam, Waltham, MA, USA) was used to measure cell viability with metabolically active cells reducing the MTT reagent into insoluble formazan. Following the removal of the treatment media, 50 μL of serum-free media and 50 riL of MTT Reagent was added to each well. The plate was then incubated at 37° C. for 3 h. After incubation, 150 μL of MTT Solvent was added into each well. The plate was then wrapped in foil and placed on an orbital plate shaker for 15 min. The absorbance was read at 590 nm.

[2] = 1 mcg/mL fly food, control 4.33%
[3] = 1 mcg/mL fly food, control approximately 95%

Aβ1-42 peptide, sequence (P05067 672-713 limits assumed): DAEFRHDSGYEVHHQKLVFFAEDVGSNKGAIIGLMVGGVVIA

Compound	IC50 (Aβ1-42 peptide)	percentage of flies in bottom section after 10 s ([1]; 10 mcg/mL fly food)	percentage of flies in middle section after 10 s ([1]; 10 mcg/mL fly food)	percentage climbing compared to control, middle, 95% CI ([1]; 10 mcg/mL, FIG. 8)	change in levels of Aβ in fly heads (ELISA) (Aβ42)	decrease in cell viability, compound co-administered with Aβ42 (SH-SY5Y cells)	cytotoxicity / neurotoxicity of compound alone (SH-SY5Y cells)	percentage of flies in middle section after 10 s [1, 2]	percentage of flies in bottom section after 10 s [1, 3]	percentage climbing compared to control, bottom, 95% CI ([1]; 1 mcg/mL, FIG. 8)	percentage climbing compared to control, middle, 95% CI ([1]; 1 mcg/mL, FIG. 8)	further results
CSc1ccc(C(=O)/C=C/C=C/c2ccc(N(C)C)cc2)cc1 [Compound 18, (2E,4E)-5-(4-(dimethylamino)phenyl)-1-(4-(methylthio)phenyl)penta-2,4-dien-1-one]	1500 nM	–	–	–	–	–	–	–	–	–	–	–
(2E,4E)-1-(4-chlorophenyl)-5-(4-(piperidin-1-yl)phenyl)penta-2,4-dien-1-one [Compound 34]	620 nM	82.50%	15.00%	−18.78-−2.558	no statistically significant change	60%	no cytotoxicity	–	–	–	–	percentage of flies in bottom section after 10 s ([1]; 100 mcg/mL fly food): 81.26%; percentage of flies in middle section after 10 s ([1]; 100 mcg/mL fly food): 14.90%; percentage climbing compared to control, bottom, 95% CI ([1]; 100 mcg/mL, FIG. 8): 3.395-24.75; percentage climbing compared to control, middle, 95% CI ([1]; 100 mcg/mL, FIG. 8): −18.67-−2.463
CN(C)c1ccc(/C=C/C=C/C(=O)c2cc(Cl)cc(Cl)c2)cc1 [Compound 25, (2E,4E)-1-(3,5-dichlorophenyl)-5-(4-(dimethylamino)phenyl)penta-2,4-dien-1-one]	910 nM	–	–	–	no statistically significant change	52%	no cytotoxicity	15.56%	82.15%	1.543-24.82	−18.97-−3.487	–
CN(C)c1ccc(C=CC=CC(=O)c2ccc(Cl)cc2)cc1 [Compound 3]	2400 nM	–	–	–	–	–	–	–	–	–	–	–
COc1ccc(C(=O)/C=C/C=C/c2ccc(N(C)C)cc2)cc1 [Compound 15, (2E,4E)-5-(4-(dimethylamino)phenyl)-1-(4-methoxyphenyl)penta-2,4-dien-1-one]	3200 nM	–	–	–	–	–	–	–	–	–	–	–
O=C(/C=C/C=C/c1ccc(N2CCCCC2)cc1)c1ccc(Cl)cc1 [Compound 33, (2E,4E)-1-(4-chlorophenyl)-5-(4-(piperidin-1-yl)phenyl)penta-2,4-dien-1-one]	1100 nM	74.00%	22.33%	−26.04-−9.964	no statistically significant change	52%	no cytotoxicity	26.00%	66.00%	18.63-40.04	−29.70-−13.63	percentage of flies in top section after 10 s ([1]; 1 mcg/mL fly food, control 0.33%): 8.00%; percentage climbing compared to control, top, 95% CI ([1]; 1 mcg/mL, FIG. 8): −12.8-−2.516; percentage climbing compared to control, bottom, 95% CI ([1]; 10 mcg/mL, FIG. 8): 10.63-32.04
